This is an account of results in patent US9518052B2, “Pyrazolopyridines and pyrazolopyrimidines” (Pfizer Inc., priority 2014, dated 2016).

Assay [1] relates to rhIL-2 stimulated STAT5 phosphorylation in isolated human T cells. In words: Human T Cell Assay: Inhibition of pSTAT5. The format is cell-based. On the procedure: Human T Cell Assay: Inhibition of pSTAT5
An assay measuring the efficacy of JAK inhibitors on the functional response of recombinant human interleukin-2 (rhIL-2) stimulated STAT5 phosphorylation in isolated human T cells.
Human whole blood from individual donors was collected from the phlebotomy unit on-site. Peripheral venous blood (30-60 mL) from healthy volunteers of either sex was used as the source of T cells. T cell isolation from venous whole blood is routinely performed in a class II microbiological safety cabinet. Each sample was collected into between 3 and 6 10 mL Sodium Heparin Vacutainer tubes (BD #367874). The blood was poured into sterile 50 mL conicals (Corning #430828) and incubated with the T cell Rosette Sep Cocktail (Stemcell Technologies #15061) at 50 μL/mL antibody/blood ratio for 20 min. with shaking at room temperature. The blood/antibody mixture was then diluted 1:2 with PBS (Pfizer media prep)/2% FBS (Sigma #F4135) and 30 mL of the mixture was layered onto 15 mL Ficoll-Hypaque (GE Healthcare #17-1440-03) in 50 mL conical tubes. The tubes were then centrifuged at 1200×g for 20 min. at room temperature with no brake. Following centrifugation the T cells formed a buffy coat between the Ficoll-Hypaque and plasma layers. The plasma above the buffy coats was removed to within 5 mm of the buffy coat using a sterile Pasteur pipette. The buffy coats were then collected into fresh sterile 50 mL conical tubes containing 25 mL PBS/2% FBS (2 buffy coats per 50 mL conical). PBS/2% FBS was added to the buffy coat cells such that the final volume in the tube was 50 mL. The tubes were then centrifuged at 200×g for 15 min. at room temperature. The supernatant was discarded and the pellet re-suspended in 10-20 mL of DMEM (Pfizer media prep) Assay media/0.2% BSA (Miltenyi #130-091-376). A differential cell count was performed using a haemacytometer and cells were diluted to 1.1×10^6 T cells/ml in DMEM/0.2% BSA media. Compounds (10 mM-0.3 μM) were diluted with Hanks Balanced Salt Solution (HBSS) (Sigma #H6648) at 1:100 dilution. Immediately following cell isolation and compound dilution, 90 μl/well of T cells (˜1×10^6/ml) in assay medium (DMEM+0.2% BSA) was added to the VWR Deep well V bottom plate (#3906-520-300). 10 μl/well of compound (final concentration range of 10 μM-0.3 nM with 0.1% DMSO) or 0.1% DMSO in HBSS as controls was added to the appropriate wells. Plates were incubated for 1 hour at 37° C., 5% CO2 incubator. 10 μl of 3.3 μg/mL rhIL-2 (R&D Systems #202-IL) was added to the cells (300 ng/ml final assay concentration). Wells containing T cells, medium with 0.1% DMSO and no rhIL-2 were used as background controls. […]
(§1) Data were collected and transformed into percent inhibition and calculated using the following formula: […]

The subject of assay [2] is rhIFNγ stimulated STAT-3 phosphorylation in the A549 human epithelial cell line. As to the kind of experiment: A549 Cell Assay: Inhibition of pSTAT3. The format is cell-based. The following applies: A549 cells. The method, then: A549 Cell Assay: Inhibition of pSTAT3
An assay measuring the efficacy of JAK inhibitors on the functional response of recombinant human interferon γ (rhIFNγ) stimulated STAT-3 phosphorylation in the A549 human epithelial cell line.
A549 cells (ATCC #CCL-185), were plated at 30,000 cells/well in 96 well flat bottomed tissue culture plates (BD#353072) in 200 μL of growth medium (DMEM, Pfizer media prep, with 10% Fetal Bovine Serum, Sigma #F4135, 2 mM L-Glutamine, Pfizer media prep, 100 U/mL penicillin, Pfizer media prep, and 200 μg/ml streptomycin, Pfizer media prep), and cultured at 37° C., 5% CO2 incubator for 18 hours. Growth medium was removed by vacuum aspiration (V&P Scientific #vp187 bp-60), and 90 μL of pre-warmed assay medium (DMEM with 0.2% BSA, Miltenyi #130-091-376) was added to each well and incubated for 15 minutes at 37° C. 10 μL of vehicle control or test compound (final concentration range of 0.3 nM to 10 μM with 0.1% DMSO) was added to the cells. Plates were incubated at 37° C. for 1 hour. After compound incubation, 10 μL of 220 ng/mL recombinant human IFNγ (R&D Systems #285-IF, final rhIFNγ concentration of 20 ng/mL) was added to the cells and plates were incubated for 30 minutes at 37° C. Wells containing A549 cells, medium with 0.1% DMSO and no rhIFNγ were used as background controls. After rhIFNγ stimulation, media was aspirated from each well and 35 μL/well of iced-cold MSD lysis buffer containing protease and phosphatase inhibitors from Phospho-STAT3 Tyr705 assay kit (Meso-Scale Discovery #K150DID) was added to each well. Plates were incubated at 4° C. with shaking for 30 minutes. Cell lysates were assayed following the MSD Phospho-STAT3 Tyr705 assay kit protocol to detect pSTAT3.
as §1

Assay [3] has as its target JAK2 (Homo sapiens (Human), UniProt O60674). In words: JAK Caliper Enzyme Assay at 1 mM ATP (JAK2). The format is biochemical. The conditions noted are these: Caliper assay at 1 mM ATP.
Assay [4] addresses JAK1 (Homo sapiens (Human), UniProt P23458). In words: JAK Caliper Enzyme Assay at 1 mM ATP (JAK1). The class given is biochemical. The following applies: Caliper assay at 1 mM ATP.
Assay [5] deals with JAK3 (Homo sapiens (Human), UniProt P52333). In words: JAK Caliper Enzyme Assay at 1 mM ATP (JAK3). The class given is biochemical. The conditions noted are these: Caliper assay at 1 mM ATP.
For assay [6], the target named is TYK2 (Homo sapiens (Human), UniProt P29597). In words: JAK Caliper Enzyme Assay at 1 mM ATP (TYK2). The class given is biochemical. The following applies: Caliper assay at 1 mM ATP.

Molecules are shown by their SMILES. Read-outs that look alike come from different tables or passages of the source.

JAK2, sequence (O60674 whole entry, species assumed): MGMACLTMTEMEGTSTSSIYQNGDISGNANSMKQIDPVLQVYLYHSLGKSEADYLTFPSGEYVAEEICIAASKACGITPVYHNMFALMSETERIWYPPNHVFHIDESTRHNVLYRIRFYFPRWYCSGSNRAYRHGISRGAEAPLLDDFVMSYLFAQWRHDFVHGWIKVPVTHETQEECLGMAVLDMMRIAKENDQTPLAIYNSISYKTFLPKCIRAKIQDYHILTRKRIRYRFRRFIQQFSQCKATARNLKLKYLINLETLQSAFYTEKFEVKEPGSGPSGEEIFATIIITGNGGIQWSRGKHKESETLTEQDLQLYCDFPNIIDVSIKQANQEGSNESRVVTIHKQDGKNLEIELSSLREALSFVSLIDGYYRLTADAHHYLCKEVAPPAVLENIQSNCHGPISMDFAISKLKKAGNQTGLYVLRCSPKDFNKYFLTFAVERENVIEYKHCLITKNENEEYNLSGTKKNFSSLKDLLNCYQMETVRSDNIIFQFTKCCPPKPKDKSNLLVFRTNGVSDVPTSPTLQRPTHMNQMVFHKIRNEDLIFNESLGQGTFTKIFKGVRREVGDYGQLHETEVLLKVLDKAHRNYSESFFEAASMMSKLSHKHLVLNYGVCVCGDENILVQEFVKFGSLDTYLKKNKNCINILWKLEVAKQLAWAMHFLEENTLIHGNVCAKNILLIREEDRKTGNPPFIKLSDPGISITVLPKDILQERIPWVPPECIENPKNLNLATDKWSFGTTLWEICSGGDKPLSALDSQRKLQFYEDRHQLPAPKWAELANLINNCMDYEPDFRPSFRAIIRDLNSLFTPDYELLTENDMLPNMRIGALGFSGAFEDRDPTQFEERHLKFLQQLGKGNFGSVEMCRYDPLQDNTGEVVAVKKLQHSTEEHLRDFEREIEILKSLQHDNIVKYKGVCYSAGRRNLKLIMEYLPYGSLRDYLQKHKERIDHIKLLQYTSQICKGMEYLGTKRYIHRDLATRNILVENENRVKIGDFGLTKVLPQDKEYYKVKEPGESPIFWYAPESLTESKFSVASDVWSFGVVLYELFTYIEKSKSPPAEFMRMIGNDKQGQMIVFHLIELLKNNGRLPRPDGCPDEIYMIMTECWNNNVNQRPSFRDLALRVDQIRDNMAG
TYK2, sequence (P29597 whole entry, species assumed): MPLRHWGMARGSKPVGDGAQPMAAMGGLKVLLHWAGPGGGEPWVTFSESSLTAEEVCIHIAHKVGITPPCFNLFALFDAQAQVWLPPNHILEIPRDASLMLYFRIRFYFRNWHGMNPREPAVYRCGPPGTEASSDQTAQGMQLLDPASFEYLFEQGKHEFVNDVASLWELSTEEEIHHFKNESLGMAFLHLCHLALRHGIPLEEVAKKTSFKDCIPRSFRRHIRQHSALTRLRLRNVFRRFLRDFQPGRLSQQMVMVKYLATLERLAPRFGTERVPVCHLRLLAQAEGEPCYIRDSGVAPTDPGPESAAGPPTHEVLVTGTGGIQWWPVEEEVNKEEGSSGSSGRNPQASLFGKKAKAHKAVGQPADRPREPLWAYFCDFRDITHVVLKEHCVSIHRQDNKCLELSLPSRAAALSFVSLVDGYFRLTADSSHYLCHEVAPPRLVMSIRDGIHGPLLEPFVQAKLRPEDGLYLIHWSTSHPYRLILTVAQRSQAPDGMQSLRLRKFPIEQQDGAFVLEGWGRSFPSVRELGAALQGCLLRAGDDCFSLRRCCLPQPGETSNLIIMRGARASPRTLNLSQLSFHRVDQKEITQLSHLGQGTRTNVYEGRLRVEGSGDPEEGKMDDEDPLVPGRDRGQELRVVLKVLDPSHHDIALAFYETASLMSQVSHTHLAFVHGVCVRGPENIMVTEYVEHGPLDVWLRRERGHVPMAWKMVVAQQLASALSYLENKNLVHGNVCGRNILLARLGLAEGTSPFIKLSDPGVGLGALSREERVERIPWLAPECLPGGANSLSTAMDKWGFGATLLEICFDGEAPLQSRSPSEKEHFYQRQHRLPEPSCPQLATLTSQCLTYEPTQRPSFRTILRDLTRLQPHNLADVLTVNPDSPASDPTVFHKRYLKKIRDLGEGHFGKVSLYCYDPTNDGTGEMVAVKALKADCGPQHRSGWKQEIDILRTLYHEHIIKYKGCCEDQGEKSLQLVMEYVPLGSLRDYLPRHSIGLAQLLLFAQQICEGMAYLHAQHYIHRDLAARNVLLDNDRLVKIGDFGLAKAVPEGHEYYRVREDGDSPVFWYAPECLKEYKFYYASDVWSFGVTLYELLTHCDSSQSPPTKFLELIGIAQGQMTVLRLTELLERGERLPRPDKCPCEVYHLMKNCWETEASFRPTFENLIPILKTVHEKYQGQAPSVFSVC
JAK1, sequence (P23458 whole entry, species assumed): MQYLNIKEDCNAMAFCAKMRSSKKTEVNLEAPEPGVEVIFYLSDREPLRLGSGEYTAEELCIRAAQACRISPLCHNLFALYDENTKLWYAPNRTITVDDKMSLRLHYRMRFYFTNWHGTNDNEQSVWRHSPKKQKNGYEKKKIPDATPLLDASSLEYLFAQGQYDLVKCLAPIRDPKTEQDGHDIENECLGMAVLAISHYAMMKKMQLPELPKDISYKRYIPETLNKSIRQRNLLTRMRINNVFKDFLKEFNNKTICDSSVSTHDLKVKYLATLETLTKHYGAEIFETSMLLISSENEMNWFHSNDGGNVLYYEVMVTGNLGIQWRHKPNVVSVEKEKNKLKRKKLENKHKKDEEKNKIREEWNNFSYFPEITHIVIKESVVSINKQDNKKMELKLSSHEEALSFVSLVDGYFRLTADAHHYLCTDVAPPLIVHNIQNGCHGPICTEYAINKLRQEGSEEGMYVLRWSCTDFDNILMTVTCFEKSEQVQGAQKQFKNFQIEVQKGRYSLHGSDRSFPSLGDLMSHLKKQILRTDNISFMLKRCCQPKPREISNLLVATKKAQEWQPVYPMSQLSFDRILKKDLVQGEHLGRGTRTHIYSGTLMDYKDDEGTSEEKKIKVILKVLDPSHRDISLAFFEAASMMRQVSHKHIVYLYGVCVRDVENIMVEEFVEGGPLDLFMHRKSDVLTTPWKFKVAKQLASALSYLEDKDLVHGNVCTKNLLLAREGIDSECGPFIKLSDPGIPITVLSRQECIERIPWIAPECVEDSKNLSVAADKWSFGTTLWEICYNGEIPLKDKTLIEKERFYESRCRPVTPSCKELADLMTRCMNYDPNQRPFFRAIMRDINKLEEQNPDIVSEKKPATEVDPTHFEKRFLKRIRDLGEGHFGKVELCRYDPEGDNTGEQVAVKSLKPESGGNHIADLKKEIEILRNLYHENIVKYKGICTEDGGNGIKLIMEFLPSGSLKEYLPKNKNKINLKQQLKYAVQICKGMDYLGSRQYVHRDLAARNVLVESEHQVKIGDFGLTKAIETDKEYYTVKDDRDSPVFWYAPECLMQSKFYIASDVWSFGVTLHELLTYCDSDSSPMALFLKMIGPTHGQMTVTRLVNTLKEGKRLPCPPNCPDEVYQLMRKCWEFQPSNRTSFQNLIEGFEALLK
JAK3, sequence (P52333 whole entry, species assumed): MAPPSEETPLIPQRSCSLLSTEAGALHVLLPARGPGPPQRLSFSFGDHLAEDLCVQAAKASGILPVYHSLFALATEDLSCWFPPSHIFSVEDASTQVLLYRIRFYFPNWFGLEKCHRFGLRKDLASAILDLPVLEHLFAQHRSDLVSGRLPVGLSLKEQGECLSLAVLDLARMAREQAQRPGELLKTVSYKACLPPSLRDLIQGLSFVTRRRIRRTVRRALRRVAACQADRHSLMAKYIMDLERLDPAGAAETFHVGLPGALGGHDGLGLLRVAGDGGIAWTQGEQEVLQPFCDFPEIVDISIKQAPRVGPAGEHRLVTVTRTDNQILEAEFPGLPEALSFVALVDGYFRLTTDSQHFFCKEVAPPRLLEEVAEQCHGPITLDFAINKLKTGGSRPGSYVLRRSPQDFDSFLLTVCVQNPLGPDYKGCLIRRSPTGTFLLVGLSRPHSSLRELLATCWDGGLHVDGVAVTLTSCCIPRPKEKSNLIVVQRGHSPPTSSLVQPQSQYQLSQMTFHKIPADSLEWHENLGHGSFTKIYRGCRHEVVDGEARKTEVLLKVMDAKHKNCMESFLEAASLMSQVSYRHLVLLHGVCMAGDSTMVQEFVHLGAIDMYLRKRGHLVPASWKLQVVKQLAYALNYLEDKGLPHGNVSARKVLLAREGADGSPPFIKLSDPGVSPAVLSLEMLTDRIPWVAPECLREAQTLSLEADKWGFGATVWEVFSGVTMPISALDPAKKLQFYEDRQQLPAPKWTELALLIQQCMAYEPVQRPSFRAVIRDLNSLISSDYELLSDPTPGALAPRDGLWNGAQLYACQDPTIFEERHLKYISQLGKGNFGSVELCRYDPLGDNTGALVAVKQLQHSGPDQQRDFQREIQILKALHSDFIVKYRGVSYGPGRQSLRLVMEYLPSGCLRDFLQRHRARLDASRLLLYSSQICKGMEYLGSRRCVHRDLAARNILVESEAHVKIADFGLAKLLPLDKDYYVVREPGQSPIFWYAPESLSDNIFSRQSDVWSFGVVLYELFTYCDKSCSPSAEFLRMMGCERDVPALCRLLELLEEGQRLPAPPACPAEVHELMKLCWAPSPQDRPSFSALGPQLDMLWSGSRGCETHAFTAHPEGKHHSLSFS

For the compound `CNC(=O)c1n[nH]c2cc(-c3cc(F)c(O)cc3CC(F)(F)F)nc(NCc3ccccc3N(C)S(C)(=O)=O)c12` [Example 20, 6-[5-fluoro-4-hydroxy-2-(2,2,2-trifluoroethyl)phenyl]-N-methyl-4-({2-[methyl(methylsulfon-yl)amino]benzyl}ami-no)-1H-pyrazolo[4,3-c]pyridine-3-carboxamide], the IC50 (as a rule, the concentration at which inhibition is half-maximal) in assay [1] came out at 31.9 nM; in assay [2], 18.8 nM.

Consider `CCc1cc(O)c(F)cc1-c1cc2[nH]nc(-c3nc(C)c(C)[nH]3)c2c(NCc2ccccc2N(C)S(C)(=O)=O)n1` [Example 158, N-[2-({[3-(4,5-Dimethyl-1H-imidazol-2-yl)-6-(2-ethyl-5-fluoro-4-hydroxyphenyl)-1H-pyrazolo[4,3-c]pyridin-4-yl]amino}methyl)phenyl]-N-methylmethanesulfonamide], for which the IC50 stood at 31.3 nM in assay [2] (Homo sapiens); 27.8 nM in assay [3]; 5.3 nM in assay [4]; 114 nM in assay [5]; 33.3 nM in assay [6].

For the compound `Cc1nnc(-c2n[nH]c3cc(-c4cc(F)c(O)cc4CC(F)(F)F)nc(NCc4ccccc4N(C)S(C)(=O)=O)c23)[nH]1` [Example 164, N-{2-[({6-[5-Fluoro-4-hydroxy-2-(2,2,2-trifluoroethyl)phenyl]-3-(5-methyl-4H-1,2,4-triazol-3-yl)-1H-pyrazolo[4,3-c]pyridin-4-yl}amino)methyl]phenyl}-N-methylmethanesulfonamide], the 50% inhibitory concentration (IC50) in assay [1] (T-cell) is 3900 nM; in assay [2] (Homo sapiens) it was 3020 nM.

Regarding `Cc1ccc(-c2nnc(-c3n[nH]c4cc(-c5cc(F)c(O)cc5CC(F)(F)F)nc(NCc5ccccc5N(C)S(C)(=O)=O)c34)[nH]2)cn1` [Example 166, N-{2-[({6-[5-fFuoro-4-hydroxy-2-(2,2,2-trifluoroethyl)phenyl]-3-[5-(6-methylpyridin-3-yl)-4H-1,2,4-triazol-3-yl]-1H-pyrazolo[4,3-c]pyridin-4-yl}amino)methyl]phenyl}-N-methylmethanesulfonamide], the IC50 came to 591 nM in assay [1]; 697 nM in assay [2]; 97.4 nM in assay [3]; 20.9 nM in assay [4]; 322 nM in assay [5]; 126 nM in assay [6].

As for `CN(C)CCNC(=O)N1CCc2[nH]c(-c3n[nH]c4nc(-c5cc(F)c(O)cc5CC(F)(F)F)nc(NCc5cc(O)ccc5N(C)S(C)(=O)=O)c34)nc2C1` [Example 171, N-[2-(Dimethylamino)ethyl]-2-{6-[5-fluoro-4-hydroxy-2-(2,2,2-trifluoroethyl)phenyl]-4-({5-hydroxy-2-[methyl(methylsulfonyl)amino]benzyl}amino)-1H-pyrazolo[3,4-d]pyrimidin-3-yl}-1,4,6,7-tetrahydro-5H-imidazo[4,5-c]pyridine-5-carboxamide], the figures for the IC50 in assay [1] (T-cell) and in assay [2] (Homo sapiens) were 1090 nM and 1580 nM, respectively.
